Like-named read-outs stand apart in the source and are kept apart here. Some results are limits rather than exact numbers.

Experiment [1] deals with primary human T-cells. Kind of experiment: Proliferation assay after 5 days (CellTiter-Glo, CD3 stimulation; PBS counter screen). In kind it is cell-based. The note with it: CD3 stimulation; for Emax proliferation (% activation) / Emax: 5 days, normalized to reference compound A1 as stimulator control = 100%, DMSO neutral control; for EC50: primary human T-cells, CellTiter-Glo after 5 days, EC50 of fitted sigmoidal curve, read-out: Tcell Proliferation CD3 EC50; for Emax: read-out: Emax proliferation (% activation). Here is the method: Compounds are then added (see next section) to medium only plates.
Cells are assessed for proliferation 5 days later by measuring […] using CellTiterGlo (Promega).
After 5 days, for detection of ATP which is directly proportional to the number of cells present per well, the CellTiter-Glo® 2.0 Reagent is used. After visual control for toxicity or precipitations of the tested compounds, the plates are equilibrated to room temperature for 45 minutes. CellTiter-Glo® 2.0 Reagent is equilibrated to room temperature as well. After equilibration, an equal amount of CellTiter-Glo reagent is added to the cells (80 μl/well) with an electronic multichannel pipette. Plates are placed on a rocking platform for 15 minutes at room temperature. After incubation, the bottom of the plates is sealed with backing tape. Luminescence is measured with PHERAstar FSX (interval time 0.5 sec, gain 3000, focal height 15 mm) and exported as CSV file for analysis in Genedata screener.
Compounds which activate unstimulated cells (see IL2 measurements) or compounds which negatively affected viability were flagged.

Experiment [2] concerns primary human T-cells.

For the compound `CN1CC(c2nc(-c3cc4c(cc3F)[S+]([O-])C[C@H](N)C(=O)N4Cc3ccc(Cl)cc3)no2)CC(F)(F)C1` (single isomer, unassigned; epimer b) [Example 343], the “Emax proliferation (% activation)” value with primary human T-cells [1] came out at 97 % activation. Besides, the figures for the EC50 in the experiment with primary human T-cells [1] and in the experiment on primary human T-cells [2] were 2.62 µM and 4.83 µM, respectively.

For the compound `COC(F)(c1nnc(-c2ccc3c(c2)N(Cc2ccc(OC(F)(F)F)cc2)C(=O)[C@@H](N)C[S+]3[O-])o1)C(F)(F)F` (single isomer, unassigned; epimer b) [Example 426], in the experiment on primary human T-cells [1], the “Emax proliferation (% activation)” value is listed as 109 % activation. Further, the EC50 amounted to 1.4 µM in the experiment on primary human T-cells [1] and 1.29 µM in the experiment on primary human T-cells [2].

Consider `N[C@H]1C[S+]([O-])c2ccc(-c3nnc(CC(F)(F)F)o3)cc2N(Cc2ccc(OC(F)(F)F)cc2)C1=O` (single isomer, unassigned; epimer b) [Example 428], for which, in the experiment on primary human T-cells [1], the “Emax proliferation (% activation)” value stood at 38 % activation and the EC50 was 3.28 µM. Further, in the experiment with primary human T-cells [2], the EC50 worked out at 1.58 µM.

For `CC(C)(C)c1cn(-c2cc3c(cc2F)S(=O)(=O)C[C@H](N)C(=O)N3Cc2ccc(Cl)cc2)nn1` [Example 5, (3R)-3-amino-7-(4-tert-butyltriazol-1-yl)-5-[(4-chlorophenyl)methyl]-8-fluoro-1,1-dioxo-2,3-dihydro-1λ^6,5-benzothiazepin-4-one], in the experiment with primary human T-cells [1] (Homo sapiens, T-cell, 120 h), the Emax amounted to 154% and the EC50 came out at 2.14 µM. This compound displayed an EC50 with primary human T-cells [2] of 0.991 µM.

Turning to `CCn1cc(-c2cc3c(cc2F)S(=O)(=O)C[C@H](N)C(=O)N3Cc2ccc(Cl)cc2)nn1` [Example 6, (3R)-3-amino-5-[(4-chlorophenyl)methyl]-7-(1-ethyltriazol-4-yl)-8-fluoro-1,1-dioxo-2,3-dihydro-1λ^6,5-benzothiazepin-4-one], in the experiment with primary human T-cells [1] (Homo sapiens, T-cell, 120 h), the Emax is 39% and the EC50 is over 20 µM. The EC50 in the experiment on primary human T-cells [2] is over 20 µM.

As to `CN1CC[C@H](n2nnc(-c3cc4c(cc3F)S(=O)(=O)C[C@H](N)C(=O)N4Cc3ccc(Cl)cc3)n2)C1` [Example 9, (3R)-3-amino-5-[(4-chlorophenyl)methyl]-8-fluoro-1,1-dioxo-7-[2-[(3S)-1-methylpyrrolidin-3-yl]tetrazol-5-yl]-2,3-dihydro-1λ^6,5-benzothiazepin-4-one], in the experiment on primary human T-cells [1] (Homo sapiens, T-cell, 120 h), the Emax worked out at 63% and the EC50 amounted to 4.66 µM. In addition, in the experiment with primary human T-cells [2], the EC50 is 1.32 µM.

For `CN1CC[C@@H](n2nnc(-c3cc4c(cc3F)S(=O)(=O)C[C@H](N)C(=O)N4Cc3ccc(Cl)cc3)n2)C1` [Example 10, (3R)-3-amino-5-[(4-chlorophenyl)methyl]-8-fluoro-1,1-dioxo-7-[2-[(3R)-1-methylpyrrolidin-3-yl]tetrazol-5-yl]-2,3-dihydro-1λ^6,5-benzothiazepin-4-one], the Emax in the experiment on primary human T-cells [1] (Homo sapiens, T-cell, 120 h) was determined as 78%. Besides, the EC50 in the experiment on primary human T-cells [1] (Homo sapiens, T-cell, 120 h) was 4.04 µM; in the experiment with primary human T-cells [2], 3.1 µM.

In the case of `CC(=O)N1CCC(n2nnc(-c3cc4c(cc3F)S(=O)(=O)C[C@H](N)C(=O)N4Cc3ccc(Cl)cc3)n2)CC1` [Example 11, (3R)-7-[2-(1-acetyl-4-piperidyl)tetrazol-5-yl]-3-amino-5-[(4-chlorophenyl)methyl]-8-fluoro-1,1-dioxo-2,3-dihydro-1λ^6,5-benzothiazepin-4-one], in the experiment with primary human T-cells [1] (Homo sapiens, T-cell, 120 h), the Emax was 107%. In addition, the EC50 in the experiment with primary human T-cells [1] (Homo sapiens, T-cell, 120 h) is 1.36 µM; in the experiment with primary human T-cells [2], 1.3 µM.

As for `CC(=O)N1CCCC(n2nnc(-c3cc4c(cc3F)S(=O)(=O)C[C@H](N)C(=O)N4Cc3ccc(Cl)cc3)n2)C1` (stereo partly drawn) [Example 13, (3R)-7-[2-(1-acetyl-3-piperidyl)tetrazol-5-yl]-3-amino-5-[(4-chlorophenyl)methyl]-8-fluoro-1,1-dioxo-2,3-dihydro-1λ^6,5-benzothiazepin-4-one], in the experiment on primary human T-cells [1] (Homo sapiens, T-cell, 120 h), the Emax turned out to be 87% and the EC50 amounted to 3.51 µM. Also, the EC50 with primary human T-cells [2] was over 10 µM.

Turning to `NC(Cn1nnc(-c2cc3c(cc2F)S(=O)(=O)C[C@H](N)C(=O)N3Cc2ccc(Cl)cc2)n1)C(F)(F)F` (stereo partly drawn) [Example 14, (3R)-3-amino-7-[2-(2-amino-3,3,3-trifluoro-propyl)tetrazol-5-yl]-5-[(4-chlorophenyl)methyl]-8-fluoro-1,1-dioxo-2,3-dihydro-1λ^6,5-benzothiazepin-4-one], in the experiment with primary human T-cells [1] (Homo sapiens, T-cell, 120 h), the Emax was found to be 131% and the EC50 came to 0.81 µM. In the experiment with primary human T-cells [2], the EC50 was found to be 0.917 µM.

Take `COC(=O)N1CCC(n2nnc(-c3cc4c(cc3F)S(=O)(=O)C[C@H](N)C(=O)N4Cc3ccc(Cl)cc3)n2)C1` (stereo partly drawn) [Example 15, methyl 3-[5-[(3R)-3-amino-5-[(4-chlorophenyl)methyl]-8-fluoro-1,1,4-trioxo-2,3-dihydro-1λ^6,5-benzothiazepin-7-yl]tetrazol-2-yl]pyrrolidine-1-carboxylate]: in the experiment on primary human T-cells [1] (Homo sapiens, T-cell, 120 h), the Emax amounted to 109%. Besides, the EC50 in the experiment with primary human T-cells [1] (Homo sapiens, T-cell, 120 h) was 2.44 µM; with primary human T-cells [2], 0.832 µM.

For the compound `Cn1nnc(-c2cc3c(cc2F)S(=O)(=O)C[C@H](N)C(=O)N3Cc2ccc(Cl)cc2)n1` [Example 16, (3R)-3-amino-5-[(4-chlorophenyl)methyl]-8-fluoro-7-(2-methyltetrazol-5-yl)-1,1-dioxo-2,3-dihydro-1λ^6,5-benzothiazepin-4-one], in the experiment on primary human T-cells [1] (Homo sapiens, T-cell, 120 h), the Emax was found to be 65% and the EC50 is 3.66 µM. The compound also showed an EC50 in the experiment with primary human T-cells [2] of 2.83 µM.

Regarding `CS(=O)(=O)N1CCC(n2nnc(-c3cc4c(cc3F)S(=O)(=O)C[C@H](N)C(=O)N4Cc3ccc(Cl)cc3)n2)CC1` [Example 17, (3R)-3-amino-5-[(4-chlorophenyl)methyl]-8-fluoro-7-[2-(1-methylsulfonyl-4-piperidyl)tetrazol-5-yl]-1,1-dioxo-2,3-dihydro-1λ^6,5-benzothiazepin-4-one], in the experiment on primary human T-cells [1] (Homo sapiens, T-cell, 120 h), the Emax was found to be 239% and the EC50 worked out at 0.167 µM. In addition, the EC50 in the experiment on primary human T-cells [2] was determined as 0.262 µM.

For `CS(=O)(=O)N1CCCC(n2nnc(-c3cc4c(cc3F)S(=O)(=O)C[C@H](N)C(=O)N4Cc3ccc(Cl)cc3)n2)C1` (stereo partly drawn) [Example 18, (3R)-3-amino-5-[(4-chlorophenyl)methyl]-8-fluoro-7-[2-(1-methylsulfonyl-3-piperidyl)tetrazol-5-yl]-1,1-dioxo-2,3-dihydro-1λ^6,5-benzothiazepin-4-one], in the experiment on primary human T-cells [1] (Homo sapiens, T-cell, 120 h), the Emax was found to be 136% and the EC50 was 0.295 µM. Also, the EC50 in the experiment with primary human T-cells [2] is 0.91 µM.

Take `CS(=O)(=O)N1CCC(n2nnc(-c3cc4c(cc3F)S(=O)(=O)C[C@H](N)C(=O)N4Cc3ccc(Cl)cc3)n2)C1` (stereo partly drawn) [Example 19, (3R)-3-amino-5-[(4-chlorophenyl)methyl]-8-fluoro-7-[2-(1-methylsulfonylpyrrolidin-3-yl)tetrazol-5-yl]-1,1-dioxo-2,3-dihydro-1λ^6,5-benzothiazepin-4-one]: in the experiment on primary human T-cells [1] (Homo sapiens, T-cell, 120 h), the Emax is 58% and the EC50 is 1.29 µM. In addition, the EC50 in the experiment with primary human T-cells [2] stood at 1.17 µM.

As to `CN1CCCC(n2nnc(-c3cc4c(cc3F)S(=O)(=O)C[C@H](N)C(=O)N4Cc3ccc(Cl)cc3)n2)C1` (stereo partly drawn) [Example 20, (3R)-3-amino-5-[(4-chlorophenyl)methyl]-8-fluoro-7-[2-(1-methyl-3-piperidyl)tetrazol-5-yl]-1,1-dioxo-2,3-dihydro-1λ^6,5-benzothiazepin-4-one], the Emax in the experiment on primary human T-cells [1] (Homo sapiens, T-cell, 120 h) was determined as 111%. Besides, the EC50 with primary human T-cells [1] (Homo sapiens, T-cell, 120 h) worked out at 0.567 µM; with primary human T-cells [2], 0.846 µM.

As for `CN1CC(n2nnc(-c3cc4c(cc3F)S(=O)(=O)C[C@H](N)C(=O)N4Cc3ccc(Cl)cc3)n2)CC(F)(F)C1` (stereo partly drawn) [Example 21, (3R)-3-amino-5-[(4-chlorophenyl)methyl]-7-[2-(5,5-difluoro-1-methyl-3-piperidyl)tetrazol-5-yl]-8-fluoro-1,1-dioxo-2,3-dihydro-1λ^6,5-benzothiazepin-4-one], in the experiment on primary human T-cells [1] (Homo sapiens, T-cell, 120 h), the Emax was determined as 127% and the EC50 is 0.293 µM. In the experiment with primary human T-cells [2], this compound showed an EC50 of 0.665 µM.

Take `CN1CC(n2nnc(-c3cc4c(cc3F)S(=O)(=O)C[C@H](N)C(=O)N4Cc3ccccc3)n2)CC(F)(F)C1` (stereo partly drawn) [Example 22, (3R)-3-amino-5-benzyl-7-[2-(5,5-difluoro-1-methyl-3-piperidyl)tetrazol-5-yl]-8-fluoro-1,1-dioxo-2,3-dihydro-1λ^6,5-benzothiazepin-4-one]: in the experiment on primary human T-cells [1] (Homo sapiens, T-cell, 120 h), the Emax was found to be 74% and the EC50 was over 10 µM. Besides, the EC50 in the experiment with primary human T-cells [2] was over 10 µM.

As to `CS(=O)(=O)N1CC(n2nnc(-c3cc4c(cc3F)S(=O)(=O)C[C@H](N)C(=O)N4Cc3ccc(Cl)cc3)n2)CC(F)(F)C1` (stereo partly drawn) [Example 23, (3R)-3-amino-5-[(4-chlorophenyl)methyl]-7-[2-(5,5-difluoro-1-methylsulfonyl-3-piperidyl)tetrazol-5-yl]-8-fluoro-1,1-dioxo-2,3-dihydro-1λ^6,5-benzothiazepin-4-one], in the experiment with primary human T-cells [1] (Homo sapiens, T-cell, 120 h), the Emax is 161% and the EC50 was found to be 0.588 µM. In the experiment with primary human T-cells [2], this compound came in with an EC50 of 3.79 µM.

With `CC(=O)N1CC(n2nnc(-c3cc4c(cc3F)S(=O)(=O)C[C@H](N)C(=O)N4Cc3ccc(Cl)cc3)n2)CC(F)(F)C1` (stereo partly drawn) [Example 24, (3R)-7-[2-(1-acetyl-5,5-difluoro-3-piperidyl)tetrazol-5-yl]-3-amino-5-[(4-chlorophenyl)methyl]-8-fluoro-1,1-dioxo-2,3-dihydro-1λ^6,5-benzothiazepin-4-one], in the experiment on primary human T-cells [1] (Homo sapiens, T-cell, 120 h), the Emax stood at 95%. The EC50 in the experiment with primary human T-cells [1] (Homo sapiens, T-cell, 120 h) was found to be 2.02 µM; in the experiment with primary human T-cells [2], 6.62 µM.

These data come from patent US20240368150A1 (Hoffmann-La Roche Inc., priority 2021, published 2024).
